Results reported in patent US7138361B2, “Herbicidal heterocycles” (E. I. du Pont de Nemours and Company, priority 2000, dated 2006).

Tests used:
Type in all cases: in vivo
[1] = test system: Sunflower; assay: Test C preemergence; conditions: Rate 62 g/ha, scale 0 to 100
[2] = test system: duck salad (Heteranthera limosa); assay: Test C flooded paddy test; conditions: for Ducksalad plant response rating: Flooded Paddy, scale 0 to 100, 0 no effect, 100 complete control; for Plant response rating, Ducksalad / Plant response rating (scale 0 to 100), Ducksalad: flooded paddy test; for Plant response rating, Ducksalad: scale 0 to 100 (0 no effect, 100 complete control)
Summary of the method: (§1)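 Flooded paddy, 2-leaf stage at treatment. Readout: visual % control vs untreated, 0–100, at 12–14 d in greenhouse.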

[3] = test system: rice (Oryza saliva); assay: Test C flooded paddy test; conditions: for Rice plant response rating: Flooded Paddy, scale 0 to 100, 0 no effect, 100 complete control; for Plant response rating, Rice / Plant response rating (scale 0 to 100), Rice: flooded paddy test; for Plant response rating, Rice: scale 0 to 100 (0 no effect, 100 complete control)
Summary of the method: as §1

[4] = test system: barnyardgrass (Echinochloa crus-galli); assay: Test C flooded paddy test; conditions: for Barnyardgrass plant response rating: Flooded Paddy, scale 0 to 100, 0 no effect, 100 complete control; for Plant response rating, Barnyardgrass / Plant response rating (scale 0 to 100), Barnyardgrass: flooded paddy test; for Plant response rating, Barnyardgrass: scale 0 to 100 (0 no effect, 100 complete control)
Summary of the method: as §1

[5] = test system: bermudagrass (Cynodon dactylon); assay: Test C postemergence
Summary of the method: (§2)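 Compounds in non-phytotoxic solvent with surfactant applied preemergence to planted seeds and postemergence to plants at 1- to 4-leaf stage (2–18 cm). Kept in greenhouse 12–14 days, then visually rated against controls on a 0 (no effect) to 100 (complete control) scale.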

[6] = test system: kochia (Kochia scoparia); assay: Test C postemergence
Summary of the method: as §2

[7] = test system: lambsquarters (Chenopodium album); assay: Test C postemergence
Summary of the method: as §2

[8] = test system: johnsongrass (Sorghum halepense); assay: Test C postemergence
Summary of the method: as §2

[9] = test system: giant foxtail (Setaria faberii); assay: Test C postemergence
Summary of the method: as §2

[10] = test system: common ragweed (Ambrosia elatior); assay: Test C postemergence
Summary of the method: as §2

[11] = test system: crabgrass (Digitaria sanguinalis); assay: Test C postemergence
Summary of the method: as §2

[12] = test system: soybean (Glycine max); assay: Test C postemergence
Summary of the method: as §2

[13] = test system: corn (Zea mays); assay: Test C postemergence
Summary of the method: as §2

[14] = test system: goosegrass (Eleusine indica); assay: Test C postemergence
Summary of the method: as §2

[15] = test system: pigweed (Amaranthus retroflexus); assay: Test C postemergence
Summary of the method: as §2

[16] = test system: cocklebur (Xanthium strumarium); assay: Test C postemergence
Summary of the method: as §2

[17] = test system: morningglory (Ipomoea hederacea); assay: Test C postemergence
Summary of the method: as §2

[18] = test system: velvetleaf (Abutilon theophrasti); assay: Test C postemergence
Summary of the method: as §2

[19] = test system: yellow nutsedge (Cyperus esculentus); assay: Test C postemergence
Summary of the method: as §2

[20] = Rate 16 g/ha, visually evaluated after 12 to 14 days, 0 = no effect, 100 = complete control
[21] = under head Rate 16 g/ha, (own rate not given), after 12 to 14 days
[22] = Rate 125 g/ha, scale 0 to 100, 0 no effect, 100 complete control
[23] = Rate 250 g/ha, scale 0 to 100 (0 no effect, 100 complete control)
[24] = Rate 500 g/ha, scale 0 to 100 (0 no effect, 100 complete control)

## CCCC(C)c1ccn(C2OCN(c3cccc(OC(F)(F)F)c3)C2=O)n1 (stereo not shown) [Compound 91]
[1]
  Plant response rating, Sunflower: 0
[2]; Rate 250 g/ha
  Ducksalad plant response rating: 90
[2]; Rate 500 g/ha
  Ducksalad plant response rating: 70
[2]; Rate 62 g/ha
  Plant response rating, Ducksalad: 80
[2]; Rate 125 g/ha
  Plant response rating, Ducksalad: 0
[2]; [20]
  Plant response rating (scale 0 to 100), Ducksalad: 0
[2]; [21]
  Plant response rating (scale 0 to 100), Ducksalad: 0
[3]; Rate 250 g/ha
  Rice plant response rating: 20
[3]; Rate 500 g/ha
  Rice plant response rating: 40
[3]; Rate 62 g/ha
  Plant response rating, Rice: 0
[3]; Rate 125 g/ha
  Plant response rating, Rice: 20
[3]; [20]
  Plant response rating (scale 0 to 100), Rice: 0
[3]; [21]
  Plant response rating (scale 0 to 100), Rice: 0
[4]; Rate 250 g/ha
  Barnyardgrass plant response rating: 100
[4]; Rate 500 g/ha
  Barnyardgrass plant response rating: 100
[4]; Rate 62 g/ha
  Plant response rating, Barnyardgrass: 0
[4]; Rate 125 g/ha
  Plant response rating, Barnyardgrass: 50
[4]; [20]
  Plant response rating (scale 0 to 100), Barnyardgrass: 0
[4]; [21]
  Plant response rating (scale 0 to 100), Barnyardgrass: 0
[5]; Rate 62 g/ha, scale 0 to 100
  Plant response rating, Bermudagrass: 20
[5]; [22]
  Plant response rating, Bermudagrass: 20
[5]; [23]
  Plant response rating, Bermudagrass: 40
[5]; [24]
  Plant response rating, Bermudagrass: 60
[6]; Rate 62 g/ha, scale 0 to 100
  Plant response rating, Kochia: 70
[6]; [22]
  Plant response rating, Kochia: 70
[6]; [23]
  Plant response rating, Kochia: 90
[6]; [24]
  Plant response rating, Kochia: 90
[7]; Rate 62 g/ha, scale 0 to 100
  Plant response rating, Lambsquarters: 100
[7]; [22]
  Plant response rating, Lambsquarters: 100
[7]; [23]
  Plant response rating, Lambsquarters: 100
[7]; [24]
  Plant response rating, Lambsquarters: 100
[8]; Rate 62 g/ha, scale 0 to 100
  Plant response rating, Johnsongrass: 20
[8]; [22]
  Plant response rating, Johnsongrass: 20
[8]; [23]
  Plant response rating, Johnsongrass: 30
[8]; [24]
  Plant response rating, Johnsongrass: 70
[9]; Rate 62 g/ha, scale 0 to 100
  Plant response rating, Foxtail, Giant: 20
[9]; [22]
  Plant response rating, Foxtail, Giant: 20
[9]; [23]
  Plant response rating, Foxtail, Giant: 40
[9]; [24]
  Plant response rating, Foxtail, Giant: 40
[10]; Rate 62 g/ha, scale 0 to 100
  Plant response rating, Ragweed, Common: 0
[10]; [22]
  Plant response rating, Ragweed, Common: 0
[10]; [23]
  Plant response rating, Ragweed, Common: 0
[10]; [24]
  Plant response rating, Ragweed, Common: 40
[11]; Rate 62 g/ha, scale 0 to 100
  Plant response rating, Crabgrass: 20
[11]; [22]
  Plant response rating, Crabgrass: 20
[11]; [23]
  Plant response rating, Crabgrass: 30
[11]; [24]
  Plant response rating, Crabgrass: 60
[12]; Rate 62 g/ha, scale 0 to 100
  Plant response rating, Soybean: 0
[12]; [22]
  Plant response rating, Soybean: 0
[12]; [23]
  Plant response rating, Soybean: 0
[12]; [24]
  Plant response rating, Soybean: 0
[13]; Rate 62 g/ha, scale 0 to 100
  Plant response rating, Corn: 0
[13]; [22]
  Plant response rating, Corn: 0
[13]; [23]
  Plant response rating, Corn: 0
[13]; [24]
  Plant response rating, Corn: 0
[14]; Rate 62 g/ha, scale 0 to 100
  Plant response rating, Goosegrass: 20
[14]; [22]
  Plant response rating, Goosegrass: 20
[14]; [23]
  Plant response rating, Goosegrass: 30
[14]; [24]
  Plant response rating, Goosegrass: 40
[15]; Rate 62 g/ha, scale 0 to 100
  Plant response rating, Pigweed: 70
[15]; [22]
  Plant response rating, Pigweed: 70
[15]; [23]
  Plant response rating, Pigweed: 90
[15]; [24]
  Plant response rating, Pigweed: 100
[16]; Rate 62 g/ha, scale 0 to 100
  Plant response rating, Cocklebur: 0
[16]; [22]
  Plant response rating, Cocklebur: 0
[16]; [23]
  Plant response rating, Cocklebur: 0
[16]; [24]
  Plant response rating, Cocklebur: 20
[17]; Rate 62 g/ha, scale 0 to 100
  Plant response rating, Morningglory: 0
[17]; [22]
  Plant response rating, Morningglory: 0
[17]; [23]
  Plant response rating, Morningglory: 60
[17]; [24]
  Plant response rating, Morningglory: 90
[18]; Rate 62 g/ha, scale 0 to 100
  Plant response rating, Velvetleaf: 0
[18]; [22]
  Plant response rating, Velvetleaf: 0
[18]; [23]
  Plant response rating, Velvetleaf: 0
[18]; [24]
  Plant response rating, Velvetleaf: 0
[19]; Rate 62 g/ha, scale 0 to 100
  Plant response rating, Nutsedge: 0
[19]; [22]
  Plant response rating, Nutsedge: 0
[19]; [23]
  Plant response rating, Nutsedge: 0
[19]; [24]
  Plant response rating, Nutsedge: 20
